According to ChEMBL document CHEMBL5715954, “Silencing c-Myc translation as a therapeutic strategy through targeting PI3Kδ and CK1ε in hematological malignancies” (Blood, 2017):

Key:
Set-up in all cases: scale not given: the % may be the effect or the level left
[1] = target: Calcium/calmodulin-dependent protein kinase type II subunit gamma (Homo sapiens) (UniProt Q13555); assay: Inhibition of human CAMK2g assessed as enzyme activity at 1 uM using KKLNRTLSFAEPG as substrate preincubated for 20 mins followed by [gamma-33P]-ATP addition and measured after 120 mins by radiometric Hot-SpotSM Kinase assay relative to control
[2] = target: Casein kinase I isoform delta (Homo sapiens) (UniProt P48730); assay: Inhibition of human CK1delta assessed as enzyme activity at 1 uM using KRRRAL[pS]VASLPGL as substrate preincubated for 20 mins followed by [gamma-33P]-ATP addition and measured after 120 mins by radiometric Hot-SpotSM Kinase assay relative to control
Casein kinase I isoform delta (Homo sapiens), sequence (P48730 whole entry, looked up, the tested form may be a part, canonical isoform): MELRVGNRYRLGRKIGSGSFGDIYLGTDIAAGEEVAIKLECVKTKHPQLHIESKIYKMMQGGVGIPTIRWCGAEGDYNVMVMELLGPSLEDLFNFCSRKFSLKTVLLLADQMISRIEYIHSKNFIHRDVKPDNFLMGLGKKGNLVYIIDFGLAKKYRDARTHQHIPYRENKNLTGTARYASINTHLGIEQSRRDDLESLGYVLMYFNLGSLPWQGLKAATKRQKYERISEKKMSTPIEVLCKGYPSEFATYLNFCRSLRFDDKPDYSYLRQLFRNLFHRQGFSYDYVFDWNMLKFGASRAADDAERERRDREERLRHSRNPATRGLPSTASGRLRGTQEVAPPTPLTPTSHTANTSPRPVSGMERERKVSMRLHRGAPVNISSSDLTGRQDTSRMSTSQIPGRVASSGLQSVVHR

[3] = target: T1, Discoidin domain-containing receptor 2 (Homo sapiens) (UniProt Q16832); assay: Inhibition of human DDR2 assessed as enzyme activity at 1 uM using KKSRGDYMTMQIG as substrate preincubated for 20 mins followed by [gamma-33P]-ATP addition and measured after 120 mins by radiometric Hot-SpotSM Kinase assay relative to control
T1 sequence (whole entry): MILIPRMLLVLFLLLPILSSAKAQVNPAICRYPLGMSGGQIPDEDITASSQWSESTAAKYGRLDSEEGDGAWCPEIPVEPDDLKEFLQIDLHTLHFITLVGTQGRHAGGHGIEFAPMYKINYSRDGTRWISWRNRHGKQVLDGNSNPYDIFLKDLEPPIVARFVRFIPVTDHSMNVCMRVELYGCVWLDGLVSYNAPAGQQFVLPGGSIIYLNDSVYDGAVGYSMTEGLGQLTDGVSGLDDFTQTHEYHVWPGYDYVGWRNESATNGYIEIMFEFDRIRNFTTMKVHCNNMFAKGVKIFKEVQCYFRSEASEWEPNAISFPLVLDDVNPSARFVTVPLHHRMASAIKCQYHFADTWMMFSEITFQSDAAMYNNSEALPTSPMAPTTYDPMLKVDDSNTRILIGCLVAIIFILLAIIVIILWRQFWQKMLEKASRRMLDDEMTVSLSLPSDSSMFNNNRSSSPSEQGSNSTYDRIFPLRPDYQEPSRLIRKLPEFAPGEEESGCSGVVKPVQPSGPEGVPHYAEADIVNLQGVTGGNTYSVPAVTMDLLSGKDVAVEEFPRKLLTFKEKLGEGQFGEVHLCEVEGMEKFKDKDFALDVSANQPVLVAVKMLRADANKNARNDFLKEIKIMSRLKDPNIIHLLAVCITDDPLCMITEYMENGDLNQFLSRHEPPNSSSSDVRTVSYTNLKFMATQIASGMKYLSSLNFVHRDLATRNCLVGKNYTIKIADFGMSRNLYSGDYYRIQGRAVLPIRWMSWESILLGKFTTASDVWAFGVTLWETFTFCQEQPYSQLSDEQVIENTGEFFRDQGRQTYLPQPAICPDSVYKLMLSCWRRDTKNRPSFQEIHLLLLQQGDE

[4] = target: Vascular endothelial growth factor receptor 3 (Homo sapiens) (UniProt P35916); assay: Inhibition of human FLT4 assessed as enzyme activity at 1 uM using poly[Glu:Tyr] (4:1) as substrate preincubated for 20 mins followed by [gamma-33P]-ATP addition and measured after 120 mins by radiometric Hot-SpotSM Kinase assay relative to control
Vascular endothelial growth factor receptor 3 (Homo sapiens), sequence (P35916 whole entry): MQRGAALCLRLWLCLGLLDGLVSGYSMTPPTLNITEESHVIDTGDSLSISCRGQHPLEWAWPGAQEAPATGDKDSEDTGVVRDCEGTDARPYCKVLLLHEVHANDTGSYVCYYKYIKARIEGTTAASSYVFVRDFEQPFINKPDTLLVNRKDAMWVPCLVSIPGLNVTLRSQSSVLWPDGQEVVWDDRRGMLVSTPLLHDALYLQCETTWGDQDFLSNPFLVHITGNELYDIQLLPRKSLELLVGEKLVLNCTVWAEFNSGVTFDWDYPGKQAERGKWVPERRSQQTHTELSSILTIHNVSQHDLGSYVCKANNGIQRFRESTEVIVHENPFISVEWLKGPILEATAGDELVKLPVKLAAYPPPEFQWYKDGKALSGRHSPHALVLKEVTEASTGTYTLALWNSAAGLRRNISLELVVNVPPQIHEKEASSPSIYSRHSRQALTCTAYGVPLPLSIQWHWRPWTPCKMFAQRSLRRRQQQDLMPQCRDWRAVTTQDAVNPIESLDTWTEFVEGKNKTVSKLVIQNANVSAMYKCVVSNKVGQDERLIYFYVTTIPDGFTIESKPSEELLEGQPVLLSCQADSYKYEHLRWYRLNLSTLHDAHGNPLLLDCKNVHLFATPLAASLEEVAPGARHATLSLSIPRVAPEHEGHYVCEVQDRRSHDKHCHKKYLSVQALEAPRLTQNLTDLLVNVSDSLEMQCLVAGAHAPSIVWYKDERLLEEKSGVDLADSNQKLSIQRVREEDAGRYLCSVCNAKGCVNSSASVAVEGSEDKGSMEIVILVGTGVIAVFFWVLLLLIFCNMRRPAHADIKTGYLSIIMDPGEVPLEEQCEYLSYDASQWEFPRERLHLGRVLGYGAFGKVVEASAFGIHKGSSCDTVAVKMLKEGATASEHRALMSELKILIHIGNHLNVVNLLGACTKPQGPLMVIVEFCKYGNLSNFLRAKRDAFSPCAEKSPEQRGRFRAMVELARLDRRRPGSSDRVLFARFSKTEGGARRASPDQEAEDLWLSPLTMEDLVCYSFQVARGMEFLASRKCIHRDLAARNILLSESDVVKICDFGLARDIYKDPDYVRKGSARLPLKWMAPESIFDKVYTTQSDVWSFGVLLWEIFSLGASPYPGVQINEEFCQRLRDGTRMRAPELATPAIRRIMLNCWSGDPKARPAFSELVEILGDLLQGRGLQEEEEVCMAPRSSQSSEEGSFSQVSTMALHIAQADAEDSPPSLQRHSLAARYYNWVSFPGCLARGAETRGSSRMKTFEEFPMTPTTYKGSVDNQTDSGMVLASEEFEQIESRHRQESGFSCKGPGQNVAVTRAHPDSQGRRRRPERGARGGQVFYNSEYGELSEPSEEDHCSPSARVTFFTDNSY

[5] = target: T2, Dual specificity mitogen-activated protein kinase kinase 4 (Homo sapiens) (UniProt P45985); assay: Inhibition of human MKK4 assessed as enzyme activity at 1 uM using JNK1 (K55M) as substrate preincubated for 20 mins followed by [gamma-33P]-ATP addition and measured after 120 mins by radiometric Hot-SpotSM Kinase assay relative to control
T2 sequence (whole entry): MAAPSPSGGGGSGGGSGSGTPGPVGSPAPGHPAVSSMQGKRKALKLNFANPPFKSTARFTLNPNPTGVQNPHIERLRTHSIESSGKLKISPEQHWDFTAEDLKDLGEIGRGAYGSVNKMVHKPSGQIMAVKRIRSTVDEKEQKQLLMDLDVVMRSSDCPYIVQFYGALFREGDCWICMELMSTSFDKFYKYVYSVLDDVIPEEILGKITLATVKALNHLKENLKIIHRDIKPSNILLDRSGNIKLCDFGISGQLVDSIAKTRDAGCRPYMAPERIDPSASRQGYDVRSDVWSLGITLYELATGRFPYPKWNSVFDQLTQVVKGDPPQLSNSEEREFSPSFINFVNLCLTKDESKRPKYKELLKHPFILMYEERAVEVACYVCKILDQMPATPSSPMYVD

[6] = target: Serine/threonine-protein kinase PAK 3 (Homo sapiens) (UniProt O75914); assay: Inhibition of human PAK3 assessed as enzyme activity at 1 uM using RRRLSFAEPG as substrate preincubated for 20 mins followed by [gamma-33P]-ATP addition and measured after 120 mins by radiometric Hot-SpotSM Kinase assay relative to control
Serine/threonine-protein kinase PAK 3 (Homo sapiens), sequence (O75914 whole entry, looked up): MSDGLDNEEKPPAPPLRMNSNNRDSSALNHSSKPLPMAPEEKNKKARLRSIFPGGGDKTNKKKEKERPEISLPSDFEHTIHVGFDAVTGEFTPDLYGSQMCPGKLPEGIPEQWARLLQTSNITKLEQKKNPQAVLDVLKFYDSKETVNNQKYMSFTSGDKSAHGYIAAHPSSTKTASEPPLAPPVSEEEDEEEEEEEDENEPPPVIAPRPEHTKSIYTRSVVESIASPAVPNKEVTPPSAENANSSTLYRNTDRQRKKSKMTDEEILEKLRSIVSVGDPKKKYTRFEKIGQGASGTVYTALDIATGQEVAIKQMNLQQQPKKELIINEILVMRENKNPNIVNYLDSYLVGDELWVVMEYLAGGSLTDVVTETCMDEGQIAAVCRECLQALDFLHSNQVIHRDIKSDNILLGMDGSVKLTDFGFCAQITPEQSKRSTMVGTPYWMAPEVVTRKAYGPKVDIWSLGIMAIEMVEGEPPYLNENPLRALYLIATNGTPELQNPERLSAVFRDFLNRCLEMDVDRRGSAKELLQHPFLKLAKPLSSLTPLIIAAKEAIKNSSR

[7] = target: T3, Testis-specific serine/threonine-protein kinase 3 (Homo sapiens) (UniProt Q96PN8); assay: Inhibition of human TSSK3 assessed as enzyme activity at 1 uM using KKKVSRSGLYRSPSMPENLNRPR as substrate preincubated for 20 mins followed by [gamma-33P]-ATP addition and measured after 120 mins by radiometric Hot-SpotSM Kinase assay relative to control
T3 sequence (whole entry): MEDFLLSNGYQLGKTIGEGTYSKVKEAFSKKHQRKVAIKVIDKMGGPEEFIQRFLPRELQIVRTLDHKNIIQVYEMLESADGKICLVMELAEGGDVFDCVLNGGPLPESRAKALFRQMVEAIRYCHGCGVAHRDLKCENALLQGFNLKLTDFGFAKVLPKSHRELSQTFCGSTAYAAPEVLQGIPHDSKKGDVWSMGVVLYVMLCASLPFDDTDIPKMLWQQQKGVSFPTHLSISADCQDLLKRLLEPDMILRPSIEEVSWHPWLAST

[8] = target: Serine/threonine-protein kinase WNK2 (Homo sapiens) (UniProt Q9Y3S1); assay: Inhibition of human WNK2 assessed as enzyme activity at 1 uM using myelin basic protein as substrate preincubated for 20 mins followed by [gamma-33P]-ATP addition and measured after 120 mins by radiometric Hot-SpotSM Kinase assay relative to control
Serine/threonine-protein kinase WNK2 (Homo sapiens), sequence (Q9Y3S1 whole entry): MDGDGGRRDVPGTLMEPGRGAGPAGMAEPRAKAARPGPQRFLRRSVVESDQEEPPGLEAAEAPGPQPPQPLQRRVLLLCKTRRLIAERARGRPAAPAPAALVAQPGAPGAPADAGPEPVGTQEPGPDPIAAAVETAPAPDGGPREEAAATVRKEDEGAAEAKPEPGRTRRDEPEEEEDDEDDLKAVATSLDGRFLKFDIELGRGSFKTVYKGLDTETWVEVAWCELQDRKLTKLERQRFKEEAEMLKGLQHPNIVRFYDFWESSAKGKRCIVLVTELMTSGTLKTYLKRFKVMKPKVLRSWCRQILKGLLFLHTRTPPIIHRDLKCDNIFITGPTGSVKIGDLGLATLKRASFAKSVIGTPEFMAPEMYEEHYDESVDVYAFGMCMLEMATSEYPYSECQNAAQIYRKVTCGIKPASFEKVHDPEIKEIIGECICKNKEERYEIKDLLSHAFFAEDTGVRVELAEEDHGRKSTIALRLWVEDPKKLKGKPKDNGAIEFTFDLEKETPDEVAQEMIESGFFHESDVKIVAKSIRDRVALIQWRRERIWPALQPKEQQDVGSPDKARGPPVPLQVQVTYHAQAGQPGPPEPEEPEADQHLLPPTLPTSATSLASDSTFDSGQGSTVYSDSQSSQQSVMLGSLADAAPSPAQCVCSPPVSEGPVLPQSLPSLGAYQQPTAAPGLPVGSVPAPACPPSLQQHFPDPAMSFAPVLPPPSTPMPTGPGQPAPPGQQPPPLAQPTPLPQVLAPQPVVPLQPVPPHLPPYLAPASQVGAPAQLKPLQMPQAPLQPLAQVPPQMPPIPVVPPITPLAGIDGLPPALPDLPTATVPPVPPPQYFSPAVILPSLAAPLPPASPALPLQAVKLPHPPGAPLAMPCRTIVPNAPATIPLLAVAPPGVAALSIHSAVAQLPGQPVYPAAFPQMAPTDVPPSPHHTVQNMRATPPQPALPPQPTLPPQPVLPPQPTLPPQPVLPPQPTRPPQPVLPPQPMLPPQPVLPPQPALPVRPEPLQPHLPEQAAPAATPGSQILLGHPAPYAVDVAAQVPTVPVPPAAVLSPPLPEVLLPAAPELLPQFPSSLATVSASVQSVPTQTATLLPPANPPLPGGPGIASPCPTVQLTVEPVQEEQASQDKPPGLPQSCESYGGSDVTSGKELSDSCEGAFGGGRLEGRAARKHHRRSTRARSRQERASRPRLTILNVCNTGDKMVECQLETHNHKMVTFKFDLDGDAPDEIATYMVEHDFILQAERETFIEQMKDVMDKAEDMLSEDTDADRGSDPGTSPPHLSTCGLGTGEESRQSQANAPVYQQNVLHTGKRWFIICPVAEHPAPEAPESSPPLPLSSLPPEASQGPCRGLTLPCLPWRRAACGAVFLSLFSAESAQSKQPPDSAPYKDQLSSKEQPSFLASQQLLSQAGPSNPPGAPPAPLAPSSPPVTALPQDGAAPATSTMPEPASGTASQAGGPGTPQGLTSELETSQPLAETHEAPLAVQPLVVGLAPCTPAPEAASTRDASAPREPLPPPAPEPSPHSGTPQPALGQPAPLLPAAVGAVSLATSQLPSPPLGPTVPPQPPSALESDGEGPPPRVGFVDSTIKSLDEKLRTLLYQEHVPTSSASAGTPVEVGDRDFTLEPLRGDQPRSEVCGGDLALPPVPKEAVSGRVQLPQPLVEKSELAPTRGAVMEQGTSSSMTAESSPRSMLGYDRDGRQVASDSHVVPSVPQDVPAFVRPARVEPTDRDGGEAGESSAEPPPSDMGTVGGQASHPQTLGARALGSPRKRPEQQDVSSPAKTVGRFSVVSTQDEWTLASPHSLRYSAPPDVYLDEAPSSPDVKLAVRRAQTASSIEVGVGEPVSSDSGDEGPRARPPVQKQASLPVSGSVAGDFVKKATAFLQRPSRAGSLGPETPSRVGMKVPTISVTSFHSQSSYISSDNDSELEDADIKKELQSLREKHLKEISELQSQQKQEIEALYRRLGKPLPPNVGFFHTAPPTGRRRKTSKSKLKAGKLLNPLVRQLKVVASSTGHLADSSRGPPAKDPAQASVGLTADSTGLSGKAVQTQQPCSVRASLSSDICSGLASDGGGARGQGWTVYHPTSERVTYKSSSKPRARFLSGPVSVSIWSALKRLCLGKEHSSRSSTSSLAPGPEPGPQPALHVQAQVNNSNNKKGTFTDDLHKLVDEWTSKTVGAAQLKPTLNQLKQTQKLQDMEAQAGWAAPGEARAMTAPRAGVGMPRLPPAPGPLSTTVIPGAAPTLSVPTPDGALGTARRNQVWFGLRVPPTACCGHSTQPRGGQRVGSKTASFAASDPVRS

Work on `C[C@H](Nc1ncnc2nc[nH]c12)c1cc2cccc(Cl)c2c(=O)n1-c1ccccc1` yielded an Activity [1] of 92.9%, an Activity [2] of 97% and an Activity [3] of 110%. For the same compound, the Activity [4] was 101%, the Activity [5] was 96.9% and the Activity [6] was 95.5%. For the same compound, the Activity [7] was 109% and the Activity [8] was 90.5%.
For `CC[C@H](Nc1ncnc2[nH]cnc12)c1nc2cccc(F)c2c(=O)n1-c1ccccc1`, the Activity [1] was 91%, the Activity [2] was 96.5% and the Activity [3] was 106%. The Activity [4] was 98.8%, the Activity [5] was 99.9% and the Activity [6] was 94.5%. It also gave an Activity [7] of 102% and an Activity [8] of 92.3%.
`CC(C)Oc1ccc(-c2nn([C@@H](C)c3oc4ccc(F)cc4c(=O)c3-c3cccc(F)c3)c3ncnc(N)c23)cc1F` [UMBRALISIB] gave an Activity [1] of 91.5%, an Activity [2] of 97.7% and an Activity [3] of 104%. The Activity [4] was 98.8%, the Activity [5] was 98.7% and the Activity [6] was 96.5%. It also gave an Activity [7] of 107% and an Activity [8] of 82.2%.
